Test results published in patent US5972923A, “Methods and compositions to enhance the cytoprotective effects of polycyclic phenolic compounds through the synergistic interaction with anti-oxidants” (priority 1998, dated 1999).
Like-named read-outs stand apart in the source and are kept apart here. One block for each compound: values may come before it.

Experiments:
SK-N-SH cells [1] = experiment: Live cell number of SK-N-SH cells with βAP 25-35 induced toxicity (trypan blue exclusion), 17β-estradiol and anti-oxidants; settings: for interaction with estrogen: combination with estrogen
HT-22 cells [2] = experiment: Effects of 17β-estradiol and its BSA conjugate on βAP 25-35 induced toxicity on HT-22 cells (trypan blue); settings: for Live Cell Number ± SEM: 3.25 μM GSH, 48 h
Procedure: Experiments were initiated by plating cells in Nunc^X 24 well plate and cells were allowed to attach for 4 h before treatment.

SK-N-SH cells [3] = experiment: Dose response of neuroprotection by GSH or 17β-estradiol against βAP 25-35 in SK-N-SH cells (trypan blue); assay type: cell-based, human; settings: for EC50: Homo sapiens, SK-N-SH
Procedure: Media was changed three times weekly.
Cells were suspended by repeated pipetting.
After 72 hours incubation, live cells were determined with Trypan Blue exclusion.
After 72 hours incubation, the cells were stained with Trypan Blue. […] (FIG. 3).

[4] = system: rat primary cortical neurons; experiment: Neuroprotection against βAP 25-35 in rat primary cortical neurons (LIVE/DEAD kit); settings: for EC50: Rattus norvegicus, Primary cortical neuron
Procedure: Primary Rat Cortical Culture: Primary neuronal cultures were prepared according to the method used by Chandler et al. Alcoholism: Clinical and Experimental Research, 17 (1993) 54-60.
Once treatments were added, primary cultures were incubated for an additional 24 h and viability determined using the LIVE/DEAD® viability/cytotoxicity kit (Molecular Probes, Eugene, Oreg.) according to manufacturer's instructions. Live cells are distinguished by the presence of intracellular esterase activity which cleaves the calcein AM dye, producing a bright green fluorescence when excited. Ethidium homodimer enters cells with damaged membranes, and upon binding to nucleic acids, produces a red fluorescence. Both dyes are excited at 485 nm, and cultures plates were viewed with a fluorescent microscope (Nikon Diaphot-300). Three random fields were photographed, and the average number of live cells per field was determined by counting the number of bright green cells.

HT-22 cells [5] = experiment: Effects of estratrienes with and without glutathione on neurotoxicity of βAP 25-35 in HT-22 cells; settings: for neuroprotection: concurrent treatment with βAP 25-35; for EC50: Mus musculus; for decrease in cell viability: β-AP (25-35)
Procedure: Experiments were initiated by plating cells in Nunc^X 24 well plate cells were allowed to attach for 4 h before treatment. […] After 48 h cells were suspended and viability determined using the trypan blue dye exclusion method (Tennant 1964). Steroids and βAP were prepared as previously described (Green et al. 1996). ED50 values were analyzed by a two way Analysis of Variance. Differences among effects were determined by a Scheffe's post hoc analysis with a p<0.05 considered significant. […] Data are normalized to the βAP free control group as 100% protection and the βAP alone group as 0% protection.

[6] = βAP 25-35 (20 μM) + TRT (anti-oxidant), 72 h
[7] = βAP 25-35 (20 μM) + βE2 + TRT (anti-oxidant), 72 h
[8] = HT-22, read-out: ED50, absence of GSH
[9] = HT-22, read-out: ED50, presence of GSH

Compound: CC(=O)Oc1c(C)c(C)c2c(c1C)CCC(C)(CCCC(C)CCCC(C)CCCC(C)C)O2 (stereo not drawn) [Tocopherol, α-tocopherol acetate]
interaction with estrogen (SK-N-SH cells [1]): no apparent interactions | live cell number (SK-N-SH cells [1]; [6]): 448 ± 12 | live cell number (SK-N-SH cells [1]; [7]): 456 ± 14

Compound: O=C(O)CCCCC1CCSS1 (stereo not drawn) [Lipoic Acid, Lipoic acid]
interaction with estrogen (SK-N-SH cells [1]): no apparent interactions | live cell number (SK-N-SH cells [1]; [6]): 406 ± 7 | live cell number (SK-N-SH cells [1]; [7]): 416 ± 10

Compound: 17β-estradiol-6-(carboxymethyl) oxime: BSA [β17-E2:BSA]
ability to protect HT22 cells from βAP (25-35) toxicity (HT-22 cells [2]; BSA conjugate containing 20 μM 17β-estradiol, presence of GSH): abolished the ability of the steroid to protect HT22 cells | Live Cell Number ± SEM (HT-22 cells [2]; βAP (20 μM) + 20 μM β17-E2:BSA): 216 ± 17 ×10^3 cells

Compound: O=C1O[C@H]([C@@H](O)CO)C(O)=C1O [Ascorbic Acid, ascorbic acid]
interaction with estrogen (SK-N-SH cells [1]): no apparent interactions | live cell number (SK-N-SH cells [1]; [6]): 124 ± 6 | live cell number (SK-N-SH cells [1]; [7]): 188 ± 11

Compound: C[C@]12CC[C@@H]3c4ccc(O)cc4CC[C@H]3[C@@H]1CC[C@@H]2O [17β-estradiol]
neuroprotection (SK-N-SH cells [3]; 200 nM 17β-estradiol, absence of glutathione): Neuroprotection was observed | EC50 (SK-N-SH cells [3]; 72 h, read-out: ED50 of 17β-estradiol, Aβ 25-35 (20 μM), absence of glutathione, 72 h): 100 nM | EC50 (SK-N-SH cells [3]; 72 h, read-out: ED50 of 17β-estradiol, Aβ 25-35 (20 μM), presence of glutathione (3.25 μM), 72 h): 0.02 nM | EC50 (SK-N-SH cells [3]; read-out: EC50 (17β-estradiol dose response, FIG. 3), βAP 25-35 (20 μM), without GSH): 126 ± 87.8 nM | EC50 ([4]; absence of GSH): 68.1 ± 79 nM | EC50 ([4]; presence of GSH): 4.3 ± 5.9 nM | neuroprotection (HT-22 cells [5]): dose-dependent neuroprotection | live cell number (SK-N-SH cells [1]; βAP + βE2, Ascorbic Acid column): 144 ± 9 | live cell number (SK-N-SH cells [1]; βAP + βE2, GSH column): 357 ± 19 | live cell number (SK-N-SH cells [1]; βAP + βE2, GSSG column): 357 ± 19

Compound: C[C@]12CC[C@@H]3c4ccc(O)cc4CC[C@H]3[C@@H]1CC[C@H]2O [α-estradiol, 17 α-estradiol]
EC50 (HT-22 cells [5]; [8]): 1010 nM | EC50 (HT-22 cells [5]; [9]): 6 nM | neuroprotection (HT-22 cells [5]): dose-dependent neuroprotection | synergistic effect (HT-22 cells [5]; with GSH, FIG. 5): marked synergistic effect

Compound: NCCS(=O)(=O)O [Taurine, 2-aminoethanoic acid]
interaction with estrogen (SK-N-SH cells [1]): no apparent interactions | live cell number (SK-N-SH cells [1]; [6]): 402 ± 9 | live cell number (SK-N-SH cells [1]; [7]): 439 ± 11

EC50 (SK-N-SH cells [3]; 72 h, read-out: ED50 of glutathione, βAP 25-35 (20 μM), absence of 17β-estradiol, 72 h): 32500 nM | EC50 (SK-N-SH cells [3]; 72 h, read-out: ED50 of glutathione, βAP 25-35 (20 μM), presence of 17β-estradiol (2 nM), 72 h): 325 nM | EC50 (SK-N-SH cells [3]; read-out: EC50 (GSH dose response, FIG. 2), βAP 25-35 (20 μM), without 17β-estradiol): 82500 ± 60400 nM | EC50 (SK-N-SH cells [3]; read-out: EC50 (GSH dose response, FIG. 2), βAP 25-35 + 17β-estradiol (2 nM)): 41 ± 25 nM
Compound: N[C@@H](CCC(=O)N[C@@H](CS)C(=O)NCC(=O)O)C(=O)O [GSH, glutathione]
protection from β-AP toxicity (SK-N-SH cells [3]; GSH 325 μM): significant protection | neuroprotective effect (SK-N-SH cells [3]; glutathione 3.25 μM, absence of 17β-estradiol): little neuroprotective effect | fold greater neuroprotectivity than with glutathione alone (SK-N-SH cells [3]; with 17β-estradiol (2 nM)): 1000 fold | effect on β-AP (25-35) induced toxicity (HT-22 cells [5]; dose of GSH used in these studies, by itself): no effect | decrease in cell viability (HT-22 cells [5]; presence of 3.25 pM GSH (so in the source)): 55±3% | live cell number (SK-N-SH cells [1]; [6]): 369 ± 7 | live cell number (SK-N-SH cells [1]; [7]): 534 ± 16

Compound: βAP 25-35: neurotoxic β-amyloid protein, a peptide of 10 amino acids (amino acids 25-35) (GSNKGAIIGLM; Amyloid-beta protein 42; UniProt P05067 696-706, looked up, fragment)
reduction in the average number of viable cells per field ([4]; βAP 25-35 (10 μM), absence of GSH, 24 h): 39% | cells killed (HT-22 cells [5]; exposure to βAP 25-35): 50-60% | decrease in cell viability (HT-22 cells [5]; absence of GSH): 54±4% | Live Cell Number ± SEM (HT-22 cells [2]; βAP (20 μM) alone): 189 ± 11 ×10^3 cells | live cell number (SK-N-SH cells [1]; βAP alone, Ascorbic Acid column): 118 ± 9 | live cell number (SK-N-SH cells [1]; βAP alone, GSH): 331 ± 17 | live cell number (SK-N-SH cells [1]; βAP alone, GSSG column): 331 ± 17 | live cell number (SK-N-SH cells [1]; βAP alone, Lipoic Acid column): 408 ± 10 | live cell number (SK-N-SH cells [1]; βAP alone, Taurine column): 408 ± 10 | live cell number (SK-N-SH cells [1]; βAP alone, Tocopherol column): 366 ± 24

Compound: C[C@@]12CCC[C@H]1[C@@H]1CCc3cc(O)ccc3[C@H]1CC2 [E-3-ol, estratriene-3-ol]
EC50 (HT-22 cells [5]; [8]): 3680 nM | EC50 (HT-22 cells [5]; [9]): 14 nM
